Experiments:
pigweed = test: Test B pre/postemergence pigweed; assay type: in vivo, Amaranthus retroflexus
Outline: (§1)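 Herbicidal effect was estimated by eye on a ten-point control scale after plants spent twelve to sixteen days in a greenhouse following soil or foliar treatment. Foliar sprays targeted plants at one to four leaves; all doses were formulated in a non-phytotoxic solvent with surfactant.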

soybean = test: Test B pre/postemergence soybean; assay type: in vivo, Glycine max
Outline: as §1

morningglory = test: Test B pre/postemergence morningglory; assay type: in vivo, Ipomoea hederacea
Outline: as §1

wheat = test: Test B pre/postemergence wheat; assay type: in vivo, Triticum aestivum
Outline: as §1

crabgrass = test: Test B pre/postemergence crabgrass; assay type: in vivo, Digitaria sanguinalis
Outline: as §1

velvetleaf = test: Test B pre/postemergence velvetleaf; assay type: in vivo, Abutilon theophrasti
Outline: as §1

duck salad = test: Test B flood test duck salad; assay type: in vivo, Heteranthera limosa
Outline: (§2)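 Plants were grown to the 2-leaf stage before treatment with test chemical, then held in a greenhouse for twelve to sixteen days. Injury was visually rated against untreated controls on a 0–10 scale, where 0 is no effect and 10 is complete control.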

purple nutsedge = test: Test B pre/postemergence purple nutsedge; assay type: in vivo, Cyperus rotundus
Outline: as §1

rape = test: Test B pre/postemergence rape; assay type: in vivo, Brassica napus
Outline: as §1

corn = test: Test B pre/postemergence corn; assay type: in vivo, Zea mays
Outline: as §1

bamyardgrass = test: Test B flood test barnyardgrass; assay type: in vivo, Echinochloa crus-galli
Outline: as §2

giant foxtail = test: Test B pre/postemergence giant foxtail; assay type: in vivo, Setaria faberii
Outline: as §1

wild oat = test: Test B pre/postemergence wild oat; assay type: in vivo, Avena fatua
Outline: as §1

sugar beet = test: Test B pre/postemergence sugar beet; assay type: in vivo, Beta vulgaris
Outline: as §1

rice = test: Test B flood test rice; assay type: in vivo, Oryza sativa
Outline: as §2

cocklebur = test: Test B pre/postemergence cocklebur; assay type: in vivo, Xanthium strumarium
Outline: as §1

[1] = Preemergence, Rate 62 g/ha, scale of 0 to 10 where 0 is no effect and 10 is complete control
[2] = Preemergence, Rate 250 g/ha, scale of 0 to 10 where 0 is no effect and 10 is complete control
[3] = Preemergence, Rate 500 g/ha, scale of 0 to 10 where 0 is no effect and 10 is complete control
[4] = Rate 62 g/ha, Postemergence, scale of 0 to 10 where 0 is no effect and 10 is complete control
[5] = Rate 125 g/ha, Postemergence, scale 0 to 10
[6] = Rate 125 g/ha, Preemergence, scale of 0 to 10 where 0 is no effect and 10 is complete control
[7] = Rate 500 g/ha, Postemergence, scale 0 to 10
[8] = Rate 62 g/ha, headed Pre-emergence (flood test species), scale 0 to 10 (0 no effect, 10 complete control)
[9] = Rate 125 g/ha, Pre-emergence, flood test species, scale 0 to 10 where 0 is no effect and 10 is complete control
[10] = Rate 250 g/ha, Pre-emergence, flood-test species, scale 0 to 10, 0 is no effect, 10 is complete control
[11] = Rate 500 g/ha, Pre-emergence, flood test species, scale 0 to 10 (0 no effect, 10 complete control)

CC(C)N(C(=O)n1oc(=O)n(CCC(F)=C(F)F)c1=O)c1ccc(F)cc1 [Compound 218]
6: Redroot pigweed plant response rating (pigweed; [1]) | Plant response rating, Soybean (soybean; [3]) | Plant response rating (0 to 10; 0 is no effect, 10 is complete control), Soybean (soybean; Rate 250 g/ha, Postemergence) | Crabgrass plant response rating (crabgrass; [2]) | Plant response rating (0 to 10; 0 is no effect, 10 is complete control), Rape (rape; Rate 250 g/ha, Postemergence) | Plant response rating, Corn (corn; [3]) | Wild oats plant response rating (wild oat; [6]) | Sugarbeets plant response rating (sugar beet; [2])
8: Redroot pigweed plant response rating (pigweed; [2]) | Plant response rating (0 to 10; 0 is no effect, 10 is complete control), Morningglory (morningglory; Rate 250 g/ha, Postemergence) | Giant foxtail plant response rating (giant foxtail; [7])
9: Morningglory plant response rating (morningglory; [7]) | Crabgrass plant response rating (crabgrass; [7]) | Giant foxtail plant response rating (giant foxtail; [1]) | Giant foxtail plant response rating (giant foxtail; [6]) | Plant response rating, Wild oats (wild oat; [3])
0: Redroot pigweed plant response rating (pigweed; [4]) | Soybean plant response rating (soybean; [1]) | Morningglory plant response rating (morningglory; [1]) | Morningglory plant response rating (morningglory; [2]) | Plant response rating, Morningglory (morningglory; [3]) | Morningglory plant response rating (morningglory; [6]) | Wheat plant response rating (wheat; [1]) | Wheat plant response rating (wheat; [2]) | Wheat plant response rating (wheat; [4]) | Wheat plant response rating (wheat; [5]) | Wheat plant response rating (wheat; [6]) | Plant response rating (0 to 10; 0 is no effect, 10 is complete control), Wheat (wheat; Rate 250 g/ha, Postemergence) | Velvetleaf plant response rating (velvetleaf; [1]) | Velvetleaf plant response rating (velvetleaf; [2]) | Velvetleaf plant response rating (velvetleaf; [4]) | Velvetleaf plant response rating (velvetleaf; [5]) | Velvetleaf plant response rating (velvetleaf; [6]) | Ducksalad plant response rating (duck salad; [8]) | Ducksalad plant response rating (duck salad; [9]) | Ducksalad plant response rating (duck salad; [10]) | Ducksalad plant response rating (duck salad; [11]) | Plant response rating, Nutsedge (purple nutsedge; [3]) | Nutsedge plant response rating (purple nutsedge; [4]) | Nutsedge plant response rating (purple nutsedge; [5]) | Plant response rating (0 to 10; 0 is no effect, 10 is complete control), Nutsedge (purple nutsedge; Rate 250 g/ha, Postemergence) | Nutsedge plant response rating (purple nutsedge; [7]) | Rape plant response rating (rape; [1]) | Rape plant response rating (rape; [2]) | Rape plant response rating (rape; [4]) | Rape plant response rating (rape; [6]) | Corn plant response rating (corn; [1]) | Corn plant response rating (corn; [2]) | Corn plant response rating (corn; [4]) | Corn plant response rating (corn; [5]) | Corn plant response rating (corn; [6]) | Plant response rating (0 to 10; 0 is no effect, 10 is complete control), Corn (corn; Rate 250 g/ha, Postemergence) | Corn plant response rating (corn; [7]) | Barnyardgrass plant response rating (bamyardgrass; [8]) | Barnyardgrass plant response rating (bamyardgrass; [9]) | Barnyardgrass plant response rating (bamyardgrass; [10]) | Barnyardgrass plant response rating (bamyardgrass; [11]) | Wild oats plant response rating (wild oat; [4]) | Wild oats plant response rating (wild oat; [5]) | Sugarbeets plant response rating (sugar beet; [1]) | Rice plant response rating (rice; [8]) | Rice plant response rating (rice; [9]) | Rice plant response rating (rice; [10]) | Rice plant response rating (rice; [11]) | Cocklebur plant response rating (cocklebur; [1]) | Cocklebur plant response rating (cocklebur; [2]) | Plant response rating, Cocklebur (cocklebur; [3]) | Cocklebur plant response rating (cocklebur; [4]) | Cocklebur plant response rating (cocklebur; [5]) | Cocklebur plant response rating (cocklebur; [6])
3: Plant response rating (0 to 10; 0 is no effect, 10 is complete control), Redroot pigweed (pigweed; Rate 250 g/ha, Postemergence) | Soybean plant response rating (soybean; [4]) | Morningglory plant response rating (morningglory; [4]) | Plant response rating, Wheat (wheat; [3]) | Plant response rating (0 to 10; 0 is no effect, 10 is complete control), Cocklebur (cocklebur; Rate 250 g/ha, Postemergence)
5: Plant response rating (0 to 10; 0 is no effect, 10 is complete control), Crabgrass (crabgrass; Rate 250 g/ha, Postemergence) | Giant foxtail plant response rating (giant foxtail; [5]) | Wild oats plant response rating (wild oat; [1])
1: Redroot pigweed plant response rating (pigweed; [5]) | Redroot pigweed plant response rating (pigweed; [6]) | Crabgrass plant response rating (crabgrass; [4]) | Rape plant response rating (rape; [5]) | Giant foxtail plant response rating (giant foxtail; [4]) | Plant response rating (0 to 10; 0 is no effect, 10 is complete control), Wild oats (wild oat; Rate 250 g/ha, Postemergence) | Sugarbeets plant response rating (sugar beet; [6])
10: Plant response rating, Redroot pigweed (pigweed; [3]) | Giant foxtail plant response rating (giant foxtail; [2]) | Plant response rating, Giant foxtail (giant foxtail; [3])
4: Soybean plant response rating (soybean; [5]) | Morningglory plant response rating (morningglory; [5]) | Crabgrass plant response rating (crabgrass; [1]) | Crabgrass plant response rating (crabgrass; [5]) | Crabgrass plant response rating (crabgrass; [6]) | Sugarbeets plant response rating (sugar beet; [7]) | Cocklebur plant response rating (cocklebur; [7])
7: Redroot pigweed plant response rating (pigweed; [7]) | Soybean plant response rating (soybean; [7]) | Plant response rating, Crabgrass (crabgrass; [3]) | Rape plant response rating (rape; [7]) | Plant response rating (0 to 10; 0 is no effect, 10 is complete control), Giant foxtail (giant foxtail; Rate 250 g/ha, Postemergence) | Wild oats plant response rating (wild oat; [2]) | Plant response rating, Sugarbeets (sugar beet; [3])
2: Soybean plant response rating (soybean; [2]) | Soybean plant response rating (soybean; [6]) | Plant response rating, Velvetleaf (velvetleaf; [3]) | Plant response rating (0 to 10; 0 is no effect, 10 is complete control), Velvetleaf (velvetleaf; Rate 250 g/ha, Postemergence) | Plant response rating, Rape (rape; [3]) | Sugarbeets plant response rating (sugar beet; [4]) | Sugarbeets plant response rating (sugar beet; [5]) | Plant response rating (0 to 10; 0 is no effect, 10 is complete control), Sugarbeets (sugar beet; Rate 250 g/ha, Postemergence)
